Measured values as given in US20170273932A1, “LYOPHILIZED COMPOSITIONS CONTAINING A METAP-2 INHIBITOR” (Zafgen, Inc., priority 2014, published 2017).
Converted amounts (≈) assume the structure as drawn.

Columns and labels:
Type in all cases: physicochemical
[1] = Particle size of jet milled ZGN-440; conditions: for D10 / D50 / D90: after jet milling
Procedure: (§1) Jet milling was conducted with ZGN-440 having an initial D90 of 211.9 μm prior to jet milling.
(§2) For FPS5, jet milled ZGN-440 was recovered in greater than 90% yield. […] The particle size generated is suitable for use with a 29-gauge to 31-gauge needle.

[2] = Polymorphic form / crystallinity after suspension, jet milling or microfluidization (XRPD); conditions: for crystallinity and polymorphic form after jet milling: XRPD
Procedure: The following processes may be used to prepare an appropriate particle size of ZGN-440 (i) microfluidization; (ii) jet milling; (iii) ball milling; and suspension homogenization.
as §1, §2

Storage of Form C = conditions: about three days of storage at either 5° C. or ambient temperature
Source text: In other embodiments, Form C of 6-O-(4-dimethylaminoethoxy)cinnamoyl fumagillol, free base has an IR absorption spectrum having characteristic peaks at about at least one of: 831, 894, 1106, 1159, 1249, 1287, 1512, 1602, 1631, and 1707 cm^−1. In this context, the term “about” means that the cm^−1 values can vary, e.g. up to ±5 cm^−1. In certain embodiments, Form C of 6-O-(4-dimethylaminoethoxy)cinnamoyl fumagillol, free base is characterized by the IR absorption spectrum shown in FIG. 15 of U.S. Pat. No. 8,349,891, U.S. Pat. No. 8,735,447, and WO 2012/064838. […] Accordingly, in certain embodiments, the compositions described herein can include Form C and/or Form A derived from Form C.

physchem = assay: physchem
Source text: In some embodiments, the crystalline form of Form A 6-O-(4-dimethylaminoethoxy) cinnamoyl fumagillol, free base has an IR absorption spectrum having at least one or more characteristic peaks at about 2971, 2938, 2817, 2762, 1163, 1103, 832 cm^−1. In this context, the term “about” means that the cm^−1 values can vary, e.g., up to ±5 cm^−1. In certain embodiments, the crystalline form of Form A 6-O-(4-dimethylaminoethoxy)cinnamoyl fumagillol has IR absorption spectrum shown in FIG. 5 of U.S. Pat. No. 8,349,891, U.S. Pat. No. 8,735,447, and WO 2012/064838. In some embodiments, the crystalline form (e.g., Form A) of Form A 6-O-(4-dimethylaminoethoxy)cinnamoyl fumagillol, free base is characterized by a melting point of about 83° C., for example, and characterized by a differential scanning calorimetry profile with an endotherm at about 83.1° C. […] The solubility of Form A in solvent (e.g., an aqueous solution that may include a buffer) with a pH greater or equal to about 8.0 may be less than about 0.2 mg/mL at ca. 20° C.

Q: With CO[C@@H]1[C@H](OC(=O)/C=C/c2ccc(OCCN(C)C)cc2)CC[C@]2(CO2)[C@H]1[C@@]1(C)O[C@@H]1CC=C(C)C [FPS/1] as the compound, how does the D10 [1] read?
A: Its D10 is 1.1 µm.

Q: What about the D50 [1] of the same compound?
A: The D50 was 2.4 µm.

Q: What about the D90 [1] of the same compound?
A: The D90 was 5.2 µm.

Q: Which D10 [1] does the source give for CO[C@@H]1[C@H](OC(=O)/C=C/c2ccc(OCCN(C)C)cc2)CC[C@]2(CO2)[C@H]1[C@@]1(C)O[C@@H]1CC=C(C)C [FPS/2] here?
A: Its D10 is 1.1 µm.

Q: What about the D50 [1] of the same compound?
A: The D50 was 3 µm.

Q: And the D90 [1]?
A: Its D90 is 6.9 µm.

Q: Which results are given for CO[C@@H]1[C@H](OC(=O)/C=C/c2ccc(OCCN(C)C)cc2)CC[C@]2(CO2)[C@H]1[C@@]1(C)O[C@@H]1CC=C(C)C [FPS/3]?
A: D10 [1]: 1.2 µm; D50 [1]: 3.9 µm; D90 [1]: 9.5 µm

Q: What does the source list for CO[C@@H]1[C@H](OC(=O)/C=C/c2ccc(OCCN(C)C)cc2)CC[C@]2(CO2)[C@H]1[C@@]1(C)O[C@@H]1CC=C(C)C [FPS/4]?
A: D10 [1]: 1.5 µm; D50 [1]: 6.5 µm; D90 [1]: 13.2 µm

Q: For CO[C@@H]1[C@H](OC(=O)/C=C/c2ccc(OCCN(C)C)cc2)CC[C@]2(CO2)[C@H]1[C@@]1(C)O[C@@H]1CC=C(C)C [FPS/5], which D10 [1] is on record?
A: The D10 was 1.2 µm.

Q: And the D50 [1]?
A: Its D50 is 6.1 µm.

Q: And the D90 [1]?
A: Its D90 is 14.3 µm.

Q: What about the “crystallinity and polymorphic form after jet milling” value [2] of the same compound?
A: Its value is “crystalline and the desired polymorph”.

Q: For CO[C@@H]1[C@H](OC(=O)/C=C/c2ccc(OCCN(C)C)cc2)CC[C@]2(CO2)[C@H]1[C@@]1(C)O[C@@H]1CC=C(C)C [Form C, 6-O-(4-dimethylaminoethoxy) cinnamoyl fumagillol], which “conversion of crystalline form on storage” value (Storage of Form C) is on record?
A: The value was “converts or reverts to Form A”.

Q: Which D10 [1] does the source give for CO[C@@H]1[C@H](OC(=O)/C=C/c2ccc(OCCN(C)C)cc2)CC[C@]2(CO2)[C@H]1[C@@]1(C)O[C@@H]1CC=C(C)C [NAT] here?
A: The D10 was 1.7 µm.

Q: What about the D50 [1] of the same compound?
A: Its D50 is 9.4 µm.

Q: What about the D90 [1] of the same compound?
A: Its D90 is 25.1 µm.

Q: And the “crystallinity and polymorphic form after jet milling” value [2]?
A: Its value is “retained its crystallinity and polymorphic form”.

Q: Which results are given for CO[C@@H]1[C@H](OC(=O)/C=C/c2ccc(OCCN(C)C)cc2)CC[C@]2(CO2)[C@H]1[C@@]1(C)O[C@@H]1CC=C(C)C [ZGN-440, 6-O-(4-dimethylaminoethoxy) cinnamoyl fumagillol]?
A: solubility (physchem; 20 °C, organic solvent or mixture): ~25 mg/mL (≈ 50 mM); solubility (physchem; 20 °C, pH 8, aqueous buffer): < 0.2 mg/mL; solubility (physchem; 50 °C, organic solvent or mixture): ~102 mg/mL (≈ 204 mM); initial D90 ([1]; prior to jet milling): 211.9 μm; crystallinity and polymorphic form after jet milling [2]: retains its crystallinity and its polymorphic structure; polymorphic form ([2]; suspended in different aqueous diluents (e.g., for extended times) or jet milled or microfluidized): no change in the polymorphic form
